Data as given in patent US20120053076A1, “METHODS FOR IDENTIFICATION” (Cambridge Enterprise Limited, priority 2009, published 2012).

Columns and labels:
[1] = test system: rat peripheral blood leukocytes; experiment: Rat chemokine-induced PBMC migration assay; type: cell-based; settings: Table 3
[2] = test system: fetal rat pituicytes; experiment: Rat pituicyte GH suppression assay; type: cell-based
Text: Two different assays for “classical” sstr2 functions were adopted: (1) cultured foetal rat pituitary cells secreted growth hormone which is inhibited by sstr2 agonists in a dose-dependent fashion and (2) selected glucose-sensitive sub-clones of the human Panc-1 cell line secrete insulin which is inhibited by sstr2 agonists in a dose-dependent fashion.
Methods: Cultures of fetal rat pituicytes were established exactly as previously described (Murray et al. (2004) J. Clin. Endocrinol. Metab. 89:3027-32) by enzymatic dispersion. After 48 hrs in low glucose DMEM plus 10% FCS, cells in 48 well plates (5×10^4 cells per well) were washed for 4 hrs in serum-free DMEM and then incubated with test agents at various concentrations for a further 24 hrs in serum-free DMEM. At the end of this period, the conditioned medium was harvested, any cell debris removed by centrifugation and assayed for GH using a commercially available ELISA (Linco; cat# EZRMGH-45K) in accordance with the manufacturer's instructions.
Results were reported as the mean±SD, expressed as the fold change from cells in the presence of vehicle only.

[3] = test system: Jurkat T cells; experiment: SDF-1α induced migration of parental Jurkat T cells; type: cell-based, human
Experimental: Results: The level of the SDF-1α, receptor CXCR4 was similar on Jurkat-D3B and the parental Jurkat T cell line. Furthermore, the Jurkat-D3B cells responded to SDF-1α in a Transwell® chemotaxis assay (see Example 1 for the methodology employed) over a similar concentration range to the parental cell line.
Jurkat T cells and Jurkat-D3B cells were induced to migrate in response to 100 ng/ml SDF-1α (R&D systems; the concentration of SDF-1α which induced maximal cell migration in both lines). The BSCI BN83250 was then added at various concentrations between 0 nM and 1000 nM (each in triplicate) to both the upper and lower compartments (at the same concentration in each compartment, so as not to create a gradient of BSCI concentration). DMSO (1% final concentration) was used as the vehicle, and was present in all wells at equal concentration.

[4] = test system: Jurkat-D3B cells; experiment: SDF-1α induced migration of Jurkat-D3B cells expressing sstr2; type: cell-based, human
Experimental: Methods: Total mRNA was prepared from Panc-1 cells (a human pancreas cell line which is well known to express high levels of sstr2) using the RNAqueous 4PCR kit (Ambion, Cat code #1914) in accordance with the manufacturer's instructions. The mRNA was then reverse transcribed (using the RETROscript kit; Ambio) to yield a cDNA preparation. A full length cDNA of the sstr2 gene was then obtained by PCR (using a Peltier PTC-200 thermal cycler using the following cycle times and conditions: 94° C. for 2 min, followed by 30 cycles of 94° C., for 30 sec, 55° C. for 30 sec, 72° C. for 1 min and finally 72° C. for 10 min), and isolated by preparative gel electrophoresis. The sequence of the sstr2 cDNA was confirmed by sequencing. The sstr2 cDNA was treated with EcoRI and Xhol to generate sticky ends, which allowed directional cloning into the polylinker of the plasmid pcDNA3.1+ (Invitrogen) followed by ligation (100 ligation reactions were run with 400 T4 DNA ligase (New England Biolabs) and the maximal amounts of DNA with an insert:plasmid ratio of 3:1 in ligase buffer incubated overnight at 13° C.). […]
A number of individual cell lines were obtained in this way, which expressed significant levels of sstr2 on the cell surface, detected by flow cytometry using the human-sstr2 antibody (Sigma, 50694; see Example 3 for details of the flow cytometry protocol used). […]

| Compound | Rat chemokine-induced PBMC migration assay Max effect [1] | Inhibition of GH release, in words [2] | EC50 ([2]; Table 3, read-out: Rat pituicyte GH suppression assay ED50) | Rat pituicyte GH suppression assay Max effect ([2]; Table 3, suppression compared to vehicle) | Inhibition of SDF-1α induced migration of Jurkat T cells, in words [3] | Emax ([1]; Rattus norvegicus, Leukocyte, read-out: Rat chemokine-induced PBMC migration assay Max effect) | Inhibition of Jurkat-D3B migration, in words [4] |
| --- | --- | --- | --- | --- | --- | --- | --- |
| (S)-3-(2′,2′-dimethyldodecanoyl)amino-caprolactam [BN83250] | 100% | inhibited GH release only at much higher concentrations | 320 nM | 63% | little or no effect | – | – |
| CC(C)(C)C(=O)N[C@H]1CCCNC1=O [Valerolactam, (S)-3-(2′,2′-dimethylpropionoylamino)-tetrahydropyridin-2-one] | – | inhibited GH release only at much higher concentrations | – | – | – | 100% | sensitive to inhibition |
